# Legend:
# [1] = Liquid state polarisation after dissolution and neutralization, by liquid state 13C-NMR at 400 MHz; type: physicochemical
# Method: In a similar way, the level of polarisation for hyperpolarised ^13C-alanine in solution may be determined by liquid state NMR measurements. Again the signal intensity of the hyperpolarised ^13C-alanine in solution is compared with the signal intensity of the ^13C-alanine in solution before polarisation. The level of polarisation is then calculated from the ratio of the signal intensities of ^13C-alanine before and after polarisation.
# After 150 minutes of dynamic nuclear polarisation, the obtained frozen polarised solution was dissolved in a dissolution medium containing 6 ml of a phosphate buffer (20 mM, pH 6.8, 100 mg/l EDTA), aqueous NaOH (27 μl 12 M solution, 1 eq) and 30 mg NaCl. The pH of the final liquid was 6.8.
# Liquid state polarisation was determined by liquid state ^13C-NMR at 400 MHz to be 35%.
# After 120 minutes of dynamic nuclear polarisation, the obtained frozen polarised solution was dissolved in a dissolution medium containing 6 ml BIS TRIS (40 mM, pH 6, 100 mg/l EDTA, 0.9% NaCl). The pH of the final solution containing the dissolved composition was 6.
# Liquid state polarisation was determined by liquid state ^13C-NMR at 400 MHz to be 16%.
# [2] = test system: Hep-G2 cells; experiment: In vitro 13C-MR spectroscopy with hyperpolarised 13C1-alanine imaging medium; type: cell-based, human; details: 3 mM 13C1-alanine, 10x10^6 Hep-G2 cells, 20 s incubation
# Method: An imaging medium was prepared as described in Example 1 and 100 μl of the imaging medium (3 mM ^13C1-alanine) was mixed into 10×10^6 Hep-G2 cells (human hepatocellular carcinoma cells). A single ^13C-MR spectrum was acquired after a total of 20 s incubation time with a 90 degree RF pulse. ^13C1-pyruvate and ^13C1-lactate were identified in the spectrum. The conversion of alanine was approximately 0.1% to both lactate and pyruvate.
# [3] = test system: mice (whole body); experiment: In vivo 13C-MR spectroscopy in mice (whole body); design: species or system mouse
# Method: 175 μl of an imaging medium which was prepared as described in Example 1 was injected into a C57B1/6 mouse over a time period of 6 s. The ^13C1-alanine concentration in said imaging medium was approximately 50 mM and 3 animals were used in the experiment. A rat size whole body coil (tuned for proton and carbon) was placed over the animal and ^13C-MR spectroscopy was carried out in a 9.4 T magnet. A dynamic set of ^13C-MR spectra (in total 5) was acquired every 5 s with a 15 degree RF pulse. Metabolism was seen to ^13C1-lactate (approximately 1% of the ^13C1-lactate signal), see FIG. 1. […] The following decay time was calculated from the MR spectra: ^13C1-lactate 33 s. […] It is thus favourable to detect the lactate signal which due to its slow decay provides a larger MR detection window.
# [4] = test system: mouse liver; experiment: In vivo 13C-MR spectroscopy in mice (liver); details: C57B1/6 mouse, surface coil over liver
# Method: 175 μl of an imaging medium which was prepared as described in Example 1 was injected into a C57B1/6 mouse over a time period of 6 s. The ^13C1-alanine concentration in said imaging medium was approximately 55 mM. A surface coil (tuned for proton and carbon) was positioned over the liver of the animal and ^13C-MR spectroscopy was carried out in a 9.4 T magnet. A dynamic set of ^13C-MR spectra (in total 15) was acquired every 5 s with a 30 degree RF pulse. This experiment confirmed that ^13C1-lactate is building up during the time course of the experiment, see FIG. 3.
# [5] = test system: mouse heart; experiment: In vivo 13C-MR spectroscopy in mice (heart)
# Method: 175 μl of an imaging medium which was prepared as described in Example 1 was injected into a C57B1/6 mouse over a time period of 6 s. The ^13C1-alanine concentration in said imaging medium was about 55 mM. A surface coil (tuned for proton and carbon) was positioned over the heart of the animal and ^13C-MR spectroscopy was carried out in a 9.4 T magnet. A dynamic set of ^13C-MR spectra (in total 10) was acquired every 5 s with a 30 degree RF pulse. […] The lactate seen in the experiment is expected to originate from pyruvate. […] Comparing Examples 5 and 6, a different metabolic profile is obtained for the liver and the heart showing that ^13C-alanine is a tissue specific metabolic marker.
# [6] = Solid state polarisation after DNP, by solid state 13C-NMR; type: physicochemical; details: DNP at 1.2 K, 3.35 T, microwave 93.90 GHz; trityl radical and Gd-chelate present
# Source text: The level of polarisation may for instance be determined by solid state ^13C-NMR measurements in solid hyperpolarised ^13C-alanine, e.g. solid hyperpolarised ^13C-alanine obtained by dynamic nuclear polarisation (DNP) of ^13C-alanine. The solid state ^13C-NMR measurement preferably consists of a simple pulse-acquire NMR sequence using a low flip angle. The signal intensity of the hyperpolarised ^13C-alanine in the NMR spectrum is compared with signal intensity of ^13C-alanine in a NMR spectrum acquired before the polarisation process. The level of polarisation is then calculated from the ratio of the signal intensities of before and after polarisation.
# The probe is inserted into the probe-retaining container, submerged in the liquid helium and irradiated with microwaves, preferably at a frequency of about 94 GHz at 200 mW. The level of polarisation may for instance be monitored by solid state ^13C-NMR measurements of the ^13C-nuclei in the frozen composition comprising the hyperpolarised sample. […] The level of polarisation is then calculated from the ratio of the signal intensities of before and after polarisation.
# 32.5 mg (0.258 mmol) of the ^13C1-alaninium chloride obtained in Example 1a was added to 42 mg of a stock solution in a micro test tube. […] Polarisation was followed by solid state ^13C-NMR and the solid state polarisation was determined to be 40%. […]
# [7] = mouse, in vivo
# Method: In another preferred embodiment, the imaging medium comprising hyperpolarised ^13C-alanine is administered repeatedly, thus allowing dynamic studies. This is a further advantage of the method according to the invention compared to other MR detection methods using conventional MR contrast agents which—in higher doses—may show toxic effects.
# [8] = Relaxation / loss of polarisation in solution as a function of pH; type: physicochemical; details: solutions with a pH above 7
# Source text: If the sample used in the composition for DNP is a carboxylate salt of ^13C-alanine, said salt needs to be converted to the free ^13C-alanine by reaction (neutralization) with an acid. […] Thus, if a carboxylate salt of ^13C-alanine was used in the composition for DNP, the liquefaction and neutralization of the solid composition comprising the hyperpolarised carboxylate salt of ^13C-alanine needs to be carried out carefully in order to avoid loss of polarisation. Neutralization may be carried out simultaneously or subsequently to the liquefaction, for the latter it must be taken care that neutralization is carried out quickly and directly after liquefaction. Thus, in one embodiment the liquefaction is carried out by melting or dissolution of the frozen composition and neutralization with an acid is quickly carried out after the frozen composition was dissolved/melted. In another embodiment, liquefaction and neutralization are carried out simultaneously, e.g. by dissolving the frozen composition in a dissolution medium which is or contains an acid that is capable of converting the hyperpolarised carboxylate salt of ^13C-alanine to ^13C-alanine. In yet another embodiment the acid is added to the probe-retaining cup which contains the frozen composition in the dynamic nuclear polarisation process. […] The most preferred acid is HCl since it is cheap and readily available.
structure (smiles),measurement,setting,value
CC(N)[13C](=O)O (stereo not drawn) [^13C1-alanine],liquid state polarisation,"[1]; Example 1c: from 13C1-alaninium chloride after 150 min DNP, dissolved in phosphate buffer/NaOH, final pH 6.8",35%
same,liquid state polarisation,"[1]; Example 2: from sodium 13C1-2-amino-propanoate after 120 min DNP, dissolved in BIS TRIS, HCl neutralization, final pH 6",16%
same,conversion of alanine to lactate,[2],approximately 0.1%
same,conversion of alanine to pyruvate,[2],approximately 0.1%
same,metabolism to 13C1-lactate (relative signal),"[3]; C57B1/6 mouse, 175 µl of approx. 50 mM injected over 6 s, whole body coil, 9.4 T",approximately 1%
same,pyruvate signal,[3]; mouse whole body,No pyruvate signal could be detected
same,13C1-lactate signal over the time course,[4]; 175 µl of approx. 55 mM,building up
same,13C1-pyruvate and 13C1-bicarbonate signals,[4]; 15 combined spectra,could be detected
same,build-up of 13C1-lactate,"[5]; C57B1/6 mouse, 175 µl of about 55 mM, surface coil over heart",noteworthy slow
same,pyruvate signal,[5]; mouse heart,absence of pyruvate
C[C@H](N)[13C](=O)O.Cl [^13C1-alaninium chloride],solid state polarisation,[6],40%
C[C@H](O)[13C](=O)O [^13C1-lactate],decay time calculated from the MR spectra,"[3]; 13C1-lactate signal after injection of hyperpolarised 13C1-alanine, mouse whole body",33 s
"CC(N)C(=O)O (stereo not drawn) [hyperpolarised ^13C-alanine, 2-amino-propanoic acid]",tolerability,[7],well tolerated
same,relaxation rate / loss of polarisation,[8],high relaxation rates
CC(N)[13C](=O)[O-].[Na+] (stereo not drawn) [sodium ^13C1-2-amino-propanoate],solid state polarisation,[6],18%

# Source: patent US20110033390A1, “MR IMAGING AGENT OR MEDIUM COMPRESSING HYPERPOLARISED 13C ALANINE AND METHODS OF IMAGING WHEREIN SUCH AN IMAGING MEDIUM IS USED” (priority 2008, published 2011)
